Measured values taken from patent US20040161415A1, “Antitumor and antiviral medications and method for producing the same” (Lymphotec Inc., priority 2001, published 2004).

Test system: EL-4 cells (mouse-derived cancer cells)
Assay: Measurement of antitumor effect: survival of C57BL/6 mice after intraperitoneal injection of EL-4 cells
Type: in vivo
Conditions: for Number of surviving mice: C57BL/6 mice with 5×10^4 EL-4 cells i.p., reserpine 200 μg/kg s.c. every four days
Method: Lymphocytes were collected from the spleen of a C57BL/6 mouse by first aseptically taking out the spleen, and mashing up the spleen with a pair of tweezers in a culture dish having a culture solution containing blood serum from cattle embryo The solution including the flaked spleen was filtrated through a mesh to obtain lymphocyte suspension. The lymphocyte suspension was transferred by 50 ml to a centrifuging tube with a pipette and centrifuged at 1500 rpm for 10 minutes.
After centrifugation, supernatant fluid was removed, and a culture solution was added to obtain 2×10^6/ml of solution. The resultant solution thus obtained was transferred to a culture dish containing solid-phase anti-CD3 antibody from a mouse and further cultivated for 4 days on a continuing basis. The resultant solution was farther rinsed with phosphate buffer (occasionally abbreviated as PBS) two times, thus to prepare lymphocytes before heating treatment.
After cultivating EL-4 cells (mouse-derived cancer cells) at 37° C. in an atmosphere of 5% carbon dioxide gas in a flask for 3 days, 50 ml of culture solution containing El-4 cells were transferred to a centrifuging tube with a pipette and centrifuged at 1500 rpm for 10 minutes. After centrifugation, supernatant fluid was removed, and pH-adjusted RPMI1640 culture medium was added thereto, and brought into suspension. Then, the resultant solution thus obtained was again centrifuged at 1500 rpm for 10 minutes, and hereafter, supernatant fluid was removed. Again supernatant fluid was removed, and the pH-adjusted RPMI1640 culture medium prepared previously was added thereto, and brought into suspension. Into the abdominal cavity of each C57BL/6 mouse, 5×10^4 of EL-4 cells in the ultimate solution resultantly obtained was injected to introduce the cancer cells thereinto.
After introducing the EL-4 cells, 3×10^6 of activated lymphocytes treated with heat, which were prepared in Example 1 described above were administered intravenously with administering subcutaneously reserpine thereto. To each mouse of a subject group, reserpine was subcutaneously given by 200 μg/kg every four days together with the […] lymphocytes, and to another control group composed of twelve mice, only the reserpine was given by 200 μg/kg every four days. The reserpine of Rauwolfia serpentina extract was used in this embodiment, but it may be made from a compound extracted from Rauwolfia serpentina or other compounds. Although the reserpine solely may be used as mentioned above, but it may be used as a secondary agent with other primary additives.

COC(=O)[C@H]1[C@H]2C[C@@H]3c4[nH]c5cc(OC)ccc5c4CCN3C[C@H]2C[C@@H](OC(=O)c2cc(OC)c(OC)c(OC)c2)[C@@H]1OC [Resrpine, reserpine]
Number of surviving mice (lapsed days 23): 12 | Number of surviving mice (lapsed days 24): 12 | Number of surviving mice (lapsed days 25): 12 | Number of surviving mice (lapsed days 26): 11 | Number of surviving mice (lapsed days 27): 11 | Number of surviving mice (lapsed days 28): 11 | Number of surviving mice (lapsed days 29): 9 | Number of surviving mice (lapsed days 30): 8 | Number of surviving mice (lapsed days 31): 8 | Number of surviving mice (lapsed days 32): 6 | Number of surviving mice (lapsed days 33): 6 | Number of surviving mice (lapsed days 34): 4 | Number of surviving mice (lapsed days 35): 3 | antitumor effect (survival rate of mice observed with time) (result in words, summary of Table 1, EL-4 bearing C57BL/6 mice): brings about an antitumor effect
